Laboratory results as given in the supplement of paper PMC10307832.

Legend:
Assay in all cases: relative viability (nuclei count vs DMSO), 5 days (fraction); higher = more cells survive
[1] = compound: C1CNCCC1C2=CC(=NN2)C3=CC=NC=C3 + COc1cc2c(Oc3ccc(NC(=O)C4(C(=O)Nc5ccc(F)cc5)CC4)cc3F)ccnc2cc1OCCCN1CCOCC1 [Foretinib] (partner 0.25 µM)
Procedure, shortened: (§1)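 A single step with final 0.05% Triton X-100, 1% formaldehyde and 1 ug/ml Hoechst fixed the cells and stained nuclei 5 days after treatment. Lung cancer cell lines in 1536-well plates had been treated by pin tool the day after seeding with one drug alone or a fixed anchor-drug dose plus five library-drug doses (not always all listed) in √10 steps, and nuclei were counted on 4× images. Relative viability is the ratio of nuclei in treated wells to nuclei in vehicle wells, taken as the median of duplicate plates.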

[2] = compound: C[C@@H](N)c1ccc(C(=O)Nc2ccnc3[nH]ccc23)cc1 + COc1cc2c(Oc3ccc(NC(=O)C4(C(=O)Nc5ccc(F)cc5)CC4)cc3F)ccnc2cc1OCCCN1CCOCC1 [Foretinib] (partner 0.25 µM)
Procedure, shortened: as §1

Tanzisertib + AZD7762 = compound: O[C@H]1CC[C@H](Nc2ncc3nc(Nc4c(F)cc(F)cc4F)n([C@H]4CCOC4)c3n2)CC1 [Tanzisertib] + NC(=O)Nc1cc(-c2cccc(F)c2)sc1C(=O)N[C@H]1CCCNC1 [AZD7762] (partner 0.2 µM)
Procedure, shortened: as §1

[3] = compound: C[C@@H](N)c1ccc(C(=O)Nc2ccnc3[nH]ccc23)cc1 + CCNC(=O)c1noc(-c2cc(C(C)C)c(O)cc2O)c1-c1ccc(CN2CCOCC2)cc1 [Luminespib] (partner 0.01 µM)
Procedure, shortened: as §1

Cell Line	relative viability ([1]; first compound 0.08 µM)	relative viability ([1]; first compound 0.8 µM)	relative viability ([1]; first compound 2.53 µM)	relative viability ([1]; first compound 8 µM)	relative viability ([2]; first compound 0.04 µM)	relative viability ([2]; first compound 0.1265 µM)	relative viability ([2]; first compound 0.4 µM)	relative viability ([2]; first compound 1.265 µM)	relative viability ([2]; first compound 4 µM)	relative viability (Tanzisertib + AZD7762; first compound 0.08 µM)	relative viability (Tanzisertib + AZD7762; first compound 0.253 µM)	relative viability (Tanzisertib + AZD7762; first compound 0.8 µM)	relative viability (Tanzisertib + AZD7762; first compound 2.53 µM)	relative viability (Tanzisertib + AZD7762; first compound 8 µM)	relative viability ([3]; first compound 0.04 µM)	relative viability ([3]; first compound 0.1265 µM)	relative viability ([3]; first compound 0.4 µM)	relative viability ([3]; first compound 1.265 µM)	relative viability ([3]; first compound 4 µM)
LOU-NH91	0.944	0.911	1	0.936	0.814	0.981	0.851	0.804	0.683	0.781	0.782	0.806	0.746	0.676	0.283	0.334	0.381	0.33	0.316
LXF-289	0.978	1.03	0.989	0.918	1.11	0.993	0.987	1.07	0.843	1.21	1.09	1.19	1.1	1.12	0.711	0.616	0.785	0.691	0.534
HARA	0.842	1.21	0.993	0.707	–	0.939	0.943	–	0.896	0.288	0.358	0.337	0.286	0.275	–	0.738	0.675	–	0.608
LU99A	0.766	0.87	0.864	0.797	–	0.875	0.714	0.681	0.621	0.299	0.42	0.431	0.322	0.407	–	0.303	0.323	0.251	0.292
201T	1.08	1.21	1.3	1.03	1.1	1.04	1.25	–	1.31	0.659	0.528	0.578	0.555	0.524	1.02	1.02	1.08	1.14	1.14
HCC-827	1.04	1.07	1.01	1.12	1.1	1.13	1.09	1.11	0.945	0.206	0.227	0.19	0.164	0.147	0.786	0.686	0.698	0.848	0.608
NCI-H1666	0.887	0.987	0.963	1.03	0.859	1.01	1.14	1.25	1.08	0.939	0.905	0.848	0.9	0.684	1.02	1.03	1.13	1.4	1.16
NCI-H1915	1.07	1.13	1.06	1.09	1.17	1.11	1.12	–	0.984	0.716	0.675	0.709	0.714	0.653	0.825	0.817	0.869	–	0.629
ChaGo-K-1	0.997	1.01	0.886	0.923	0.93	0.955	0.885	0.918	0.799	0.926	0.89	0.856	0.839	0.796	0.554	0.641	0.629	0.562	0.436
NCI-H2170	0.897	0.974	1	1.01	1.02	1	0.936	0.922	0.937	1.09	0.897	0.791	1.02	0.676	0.735	0.708	0.623	0.649	0.502
NCI-H1975	1.07	1.03	0.962	0.932	1.06	0.854	0.847	0.681	0.653	0.697	0.794	0.752	0.653	0.54	0.211	0.26	0.114	0.181	0.146
NCI-H3122	1.01	0.935	0.942	1.01	0.943	1.03	0.952	0.98	0.897	1.13	1.03	1.03	0.981	0.993	0.0997	0.0955	0.113	0.162	0.124
NCI-H2347	1.21	0.742	0.805	1.25	1.17	0.964	1.22	–	1.32	0.866	0.718	0.825	0.762	0.662	0.469	0.308	0.784	–	0.795
NCI-H1993	0.857	0.744	0.887	0.808	0.785	0.732	0.781	0.924	0.714	1.21	0.867	0.731	0.68	0.823	0.857	0.923	0.806	0.928	0.684
NCI-H2405	1.05	1.04	1.11	1.05	1.12	1.09	1.13	0.838	0.519	0.767	0.794	0.757	0.795	0.617	0.461	0.805	0.577	0.279	0.238
NCI-H2126	1.18	1.31	1.23	1.29	1.2	1.13	1.29	–	1.09	1.07	1.03	1.04	1.05	1.05	1	0.951	1.01	1.01	0.806
NCI-H1944	0.845	0.884	0.997	0.839	0.98	0.975	0.985	0.822	0.557	0.526	0.507	0.52	0.422	0.458	0.857	0.722	0.753	0.746	0.6
